Each structure is given as a SMILES string.

The assay has as its system human mammary gland/duct cancer cell line BT-474. In words: In vitro antitumor/anticancer testing (CCK-8), BT-474. The class given is cell-based. Particulars: 48 h. As to the method:
Each of Tea Product 1 and Conventional Tea Product obtained in section A of this example was used to prepare test tea samples according to the method described below. A proper amount of the respective tea product was added into sterile water to prepare a stock solution with a concentration of 100 mg/mL, followed by using a membrane filter with a pore size of 0.22 μm to conduct vacuum filtration and sterilization. The resulting stock solution was diluted with a respective complete medium shown in Table 3 below to form test tea samples with different concentrations. In other words, the thus obtained test tea samples to be used for treating a respective cancer/tumor cell line shown in Table 3 were prepared using the same complete medium as that for the respective cancer/tumor cell line. […] Specifically, each of the aforesaid commercially available agents was subjected to the method described below to prepare comparative test samples. A proper amount of a respective commercially available agent was dissolved in phosphate-buffered saline (PBS) to prepare a stock solution with a concentration of 5 mg/mL, followed by using a membrane filter with a pore size of 0.22 μm to conduct vacuum filtration and sterilization. The resulting stock solution was diluted with a respective complete medium shown in Table 3 below to form comparative test samples with different concentrations. To be specific, the comparative test samples prepared from the respective commercially available agent have the concentrations shown in Table 2 below. The thus obtained comparative test samples to be used for treating a respective cancer/tumor cell line shown in Table 3 were prepared using the same complete medium as that for the respective cancer/tumor cell line. […] The cultivation of each cancer/tumor cell line is described as follows. […] Afterwards, a cell suspension having a cell density of 1.0×10^4 cells/mL was prepared. […] As experimental groups, the tumor/cancer cells of each cell line were treated with the test tea samples prepared from one or more of the tea products and the comparative test samples prepared from one or more of the commercially available agents as obtained in section B of this example (for more detailed information about the tea product(s) and the commercially available product (s) used to treat each cell line, please see Table 4 below). To be specific, 6 to 10 test tea samples prepared from the same tea product and having different concentrations, as well as 6 to 10 comparative test samples prepared from the same commercially available agent and having different concentrations, were utilized to treat the tumor/cancer cells of each cell line. For each experimental group, 6 repetitions of tumor/cancer treatment were performed. For the control group, 100 μL of PBS was added to a well containing the medium and the cancer/tumor cells of the respective cell line. For the blank group, 100 μL of PBS was added to a well containing a complete medium the same as that used for cultivation of the cancer/tumor cells of the respective cell line. After the treatment described above, cultivation was conducted in an incubator (37° C., 100% relative humidity, 5% CO2) for 48 hours. Subsequently, the liquid containing the medium and the sample in the well was removed, and a respective complete medium (shown in Table 3 above) containing 10% CCK-8 (Cell Counting Kit-8)(Dojindo Molecular Technologies, Inc., Cat. No. CK04-13) was added. Cultivation was performed in an incubator (37° C.) for 2 to 4 hours, followed by gently shaking.

For `O=C(O[C@@H]1Cc2c(O)cc(O)cc2O[C@@H]1c1cc(O)c(O)c(O)c1)c1cc(O)c(O)c(O)c1` [EGCG monomer, epigallocatechin gallate], the Percent growth inhibition reads like this: (2.5 μg/mL) 6.51%; (5 μg/mL) 2.62%; (10 μg/mL) −2.75%; (20 μg/mL) −6.45%; (40 μg/mL) −20.61%; (80 μg/mL) 57.40%. Besides, the Percent growth inhibition (160 μg/mL) is listed as 96.45%, the Percent growth inhibition (320 μg/mL) was found to be 97.46% and the Percent growth inhibition (640 μg/mL) is reported as 97.03%. Moreover, the IC50 entry (BT-474) is recorded as “IC50 (μg/mL) = 74.75”.

The values are drawn from patent publication US20180071354A1, “SELECTIVE BREEDING METHOD OF ANTITUMOR/ANTICANCER CAMELLIA SINENSIS STRAIN, AND TEA PRODUCT OF SUCH STRAIN” (FUJIAN AGRICULTURE AND FORESTRY UNIVERSITY, priority 2015, published 2018).
